Data on 74 compounds can be found in ChEMBL document CHEMBL3507680, “University of Dundee, Gates Library screen for HepG2 cell viability”.

The nature of this series: Human HepG2 cell viability assay in 384 well format. The note with it: HepG2 cells, read-out: Inhibition. Type of series: toxicity, cell-based. Also noted: dose 125 nL, time 70.5 hour; concentration not given beside the values.

For `CCc1ccc(O)c(C(=O)N2CCN(CC(=O)N3CCCCC3)CC2)c1`, the cytotoxicity at 70.5 h is 11.8%.

On to `COCC(C)NC(=O)N(C)Cc1cc(C)on1` (centres undefined), for which the cytotoxicity at 70.5 h is -5.5%.

Consider `COC(=O)C(CNC(=O)Nc1nncs1)Cc1cccc(C)c1` (centres undefined), for which the cytotoxicity at 70.5 h was -3.4%.

Take `CC(Cn1cncn1)NC(=O)NCC(C)(C)Cc1ccccc1` (centres undefined): the cytotoxicity at 70.5 h was -4.62%.

For `Cc1ccc(C(C)(C)CNC(=O)NC(C)Cn2cncn2)cc1` (centres undefined), the cytotoxicity at 70.5 h was -0.962%.

With `CCC(CO)NC(=O)Nc1ccc(OCC(F)(F)F)c(C)c1` (centres undefined), the cytotoxicity at 70.5 h is -1.78%.

With `CC(C)n1nc2c(cc1=O)CN(Cc1nc(-c3ccco3)no1)CC2`, the cytotoxicity at 70.5 h is -5.7%.

Consider `CC(CO)NC(=O)Nc1ccc(Cl)cc1OCC(F)(F)F` (centres undefined), for which the cytotoxicity at 70.5 h is -4.37%.

`Cc1cc(NC(=O)NC(C)CO)ccc1OCC(F)(F)F` (centres undefined): the cytotoxicity at 70.5 h is -2.25%.

Turning to `CN(C(=O)c1ccncc1F)c1ccccc1S(C)(=O)=O`, the cytotoxicity at 70.5 h was -1.8%.

For `CN(C(=O)c1ccncc1Cl)c1ccccc1S(C)(=O)=O`, the cytotoxicity at 70.5 h was determined as 12.1%.

As to `Cc1ccc(CNc2ccc(N3CCC(CO)CC3)cn2)o1`, the cytotoxicity at 70.5 h was -2.34%.

Regarding `OCC1CCN(c2ccc(NCc3ccsc3)nc2)CC1`, the cytotoxicity at 70.5 h was -5.76%.

For the compound `Cc1cnc(C(=O)N2CCC(COCc3ccccc3)C2)cn1` (centres undefined), the cytotoxicity at 70.5 h is -2.03%.

With `Cc1noc(CCCC(=O)NCC(c2ccco2)N2CCCCC2)n1` (centres undefined), the cytotoxicity at 70.5 h was -3%.

For `CCN(CC)CCCC(C)NC(=O)c1cccnc1-n1cccn1` (centres undefined), the cytotoxicity at 70.5 h came out at 3.18%.

With `COC(=O)CN(C(=O)c1ccoc1)c1cccc(F)c1`, the cytotoxicity at 70.5 h was -8.55%.

Take `COCCCNc1cc(C(=O)N2CCOCC2)ccc1C`: the cytotoxicity at 70.5 h is -17.5%.

On to `Cc1ccc(C(NC(=O)CN2CCc3c(ncn3C)C2)C2CC2)cc1` (centres undefined), for which the cytotoxicity at 70.5 h is -16.3%.

Regarding `CC(C)c1nc2cc(NC(=O)Cn3ccc(=O)[nH]c3=O)ccc2o1`, the cytotoxicity at 70.5 h was -8.49%.

As for `CS(=O)(=O)N1CCCC(C(=O)N2CCOc3ccccc32)C1` (centres undefined), the cytotoxicity at 70.5 h was -14.4%.

As for `CSC(C)(C)CNC(=O)NC1CCC1`, the cytotoxicity at 70.5 h is -1.66%.

As for `CC(=O)NCC(=O)NC1CCc2nccn2C1` (centres undefined), the cytotoxicity at 70.5 h is 7.09%.

As for `CN(C)c1ncccc1NC(=O)C1CN(Cc2ccccc2)CCO1` (centres undefined), the cytotoxicity at 70.5 h is -2.14%.

As for `CCCC(NC(=O)c1ccccc1Br)c1nnn[nH]1` (centres undefined), the cytotoxicity at 70.5 h is -3.33%.

Turning to `CCS(=O)(=O)CC(=O)NC1CCc2nccn2C1` (centres undefined), the cytotoxicity at 70.5 h is -4.08%.

On to `O=C(O)c1ccn(-c2ccccc2NS(=O)(=O)c2cccc(F)c2)n1`, for which the cytotoxicity at 70.5 h stood at 7.58%.

Take `CC(C)(C)n1cc(NC(=O)C2CN(Cc3ccccc3)CCO2)cn1` (centres undefined): the cytotoxicity at 70.5 h is -0.308%.

For `CCCC(NC(=O)c1ccc(OC)cc1C)c1nnn[nH]1` (centres undefined), the cytotoxicity at 70.5 h is 8.62%.

Turning to `CCCC(NC(=O)c1cncc(C)c1)c1nnn[nH]1` (centres undefined), the cytotoxicity at 70.5 h was determined as 6.22%.

Turning to `CSC(C)(C)CNC(=O)NC1CCN(CC(F)F)CC1`, the cytotoxicity at 70.5 h is -1.88%.

On to `O=C(NC1CCN(c2cccc(OC(F)(F)F)c2)C1=O)C1CCC1` (centres undefined), for which the cytotoxicity at 70.5 h was -2.94%.

With `COc1ccc(C2CCCN2C(=O)NCCCn2cccn2)cc1` (centres undefined), the cytotoxicity at 70.5 h is -11%.

In the case of `CCOCC(=O)NCc1cc(Br)ccc1OC(F)F`, the cytotoxicity at 70.5 h came out at 0.394%.

For the compound `CC(C)N(C)CCNC(=O)N1CCN(Cc2ccon2)CC1`, the cytotoxicity at 70.5 h is -5.35%.

For the compound `Cc1cc(C)cc(C(=O)Nc2cccc(CN3CCCC3C(N)=O)c2)c1` (centres undefined), the cytotoxicity at 70.5 h was found to be 6.78%.

On to `COc1cccc(Cc2nnc(SCCS(C)(=O)=O)o2)c1`, for which the cytotoxicity at 70.5 h was -8.26%.

Take `Cc1cccc(NC(=O)[C@@H]2CCCN2Cc2nc(C)c(C)o2)n1`: the cytotoxicity at 70.5 h is -9.4%.

On to `c1nc(N2CCCC(Cn3cncn3)C2)c2ccsc2n1` (centres undefined), for which the cytotoxicity at 70.5 h worked out at 38.8%.

In the case of `O=C(C1CC1)N1CCN(C(=O)C2CC(=O)N(c3ccccc3Br)C2)CC1` (centres undefined), the cytotoxicity at 70.5 h is 26.2%.

As to `COc1ncccc1CNC(=O)N1CCC(CNC(C)=O)CC1`, the cytotoxicity at 70.5 h was -8.01%.

In the case of `CCN1CCC(CNC(=O)Nc2cccnc2OC)CC1`, the cytotoxicity at 70.5 h is -6.19%.

As for `CCS(=O)(=O)c1ccc(N2CCC(NC(=O)C3CCCCC3)CC2)cc1`, the cytotoxicity at 70.5 h was found to be 0.314%.

For `COc1cccc(S(=O)(=O)CCN2CCN(CCO)CC2)c1`, the cytotoxicity at 70.5 h is -2.82%.

`Cc1ccc(C)c(NC(=O)Cc2c(C)nc3c(c2C)c(=O)[nH]n3C)c1`: the cytotoxicity at 70.5 h was determined as 29.5%.

For the compound `Cc1nn(CCO)c(C)c1CNC1CCc2c(F)cccc21` (centres undefined), the cytotoxicity at 70.5 h was 0.27%.

With `Cn1c(C(=O)N2CCC(C(N)=O)C2)c(Cl)c2ccccc21` (centres undefined), the cytotoxicity at 70.5 h was -5.34%.

On to `Cc1nc2c(c(C)c1CC(=O)Nc1ccccc1F)c(=O)[nH]n2C`, for which the cytotoxicity at 70.5 h turned out to be 4.76%.

Regarding `CCS(=O)(=O)c1ccc(N2CCC(NC(=O)c3ccccn3)CC2)cc1`, the cytotoxicity at 70.5 h came out at 29%.

For the compound `O=C(NCCc1ccccn1)NC1CCN(c2ccccc2)C1=O` (centres undefined), the cytotoxicity at 70.5 h was determined as 1.75%.

Take `Cc1cc(C)n(CC2CCCN2CC(=O)Nc2nncs2)n1` (centres undefined): the cytotoxicity at 70.5 h was found to be 30%.

As to `Cc1cnn(CC2CCCCN2CC(=O)Nc2nncs2)c1` (centres undefined), the cytotoxicity at 70.5 h was -1.03%.

For `Cc1cc(C)n(CC2CCCCN2CC(=O)Nc2c(C)n[nH]c2C)n1` (centres undefined), the cytotoxicity at 70.5 h stood at 2.06%.

For `CC(C)(C)S(=O)(=O)CCNC(=O)NCCCc1cccc(F)c1`, the cytotoxicity at 70.5 h turned out to be 29%.

Regarding `COCCS(=O)(=O)N1CCN(c2cccc(O)c2)CC1`, the cytotoxicity at 70.5 h is -2.61%.

For `COC1CCN(C(=O)C2CC(=O)N(c3ccccc3Br)C2)CC1` (centres undefined), the cytotoxicity at 70.5 h is -8.26%.

As to `Cc1cc(C)n(CC2CCCCN2CC(=O)Nc2nccs2)n1` (centres undefined), the cytotoxicity at 70.5 h is -5.53%.

For `CC(C)COCCC(=O)Nc1ccc2oc(=O)n(CCN(C)C)c2c1`, the cytotoxicity at 70.5 h turned out to be 17.6%.

For the compound `CN(C)CCn1c(=O)oc2ccc(NC(=O)CSc3ccccc3)cc21`, the cytotoxicity at 70.5 h was found to be 6.5%.

`O=C(CCNS(=O)(=O)c1ccc(F)c(F)c1)NCc1ccoc1`: the cytotoxicity at 70.5 h is -3.45%.

As to `CCc1ccc(CNC(=O)NC2CCCc3c2cnn3CCO)s1` (centres undefined), the cytotoxicity at 70.5 h is -2.75%.

Regarding `Cc1csc(CNC(=O)NC2CCCc3c2cnn3CCO)n1` (centres undefined), the cytotoxicity at 70.5 h was -9.89%.

Turning to `O=C(NCC1CCCCC1)NC1CCCc2c1cnn2CCO` (centres undefined), the cytotoxicity at 70.5 h was -7.67%.

As for `CC(C)(O)CN1CCN(C(=O)c2cnn(-c3ccccc3F)c2)CC1`, the cytotoxicity at 70.5 h is -4.5%.

On to `Cc1cc(C(=O)Nc2ccc3oc(=O)n(CCN(C)C)c3c2)c(C)o1`, for which the cytotoxicity at 70.5 h came to 9.45%.

Turning to `Cc1nn(C)c(C)c1C1COCCN1c1ncnc2c(C)cccc12` (centres undefined), the cytotoxicity at 70.5 h is -6.31%.

For `CC1COCCN1c1ncnc2sccc12` (centres undefined), the cytotoxicity at 70.5 h was determined as 6.87%.

As for `CC(C)(C)OC(=O)NCCc1csc(N2CCCC2)n1`, the cytotoxicity at 70.5 h was -3.27%.

For the compound `CCN(CC1CN(Cc2c(C)noc2C)CCO1)c1cccnn1` (centres undefined), the cytotoxicity at 70.5 h is 12.5%.

For `Cc1nn(C)c(C)c1C1CCCN1c1ncnc2sccc12` (centres undefined), the cytotoxicity at 70.5 h came to 3.73%.

Take `CCOc1cccc(C(=O)N(CCC#N)Cc2ccccn2)c1`: the cytotoxicity at 70.5 h was -0.366%.

For `CCN(CC1CN(Cc2ccn(C(C)C)n2)CCO1)c1cccnn1` (centres undefined), the cytotoxicity at 70.5 h was found to be 1.41%.

As for `Cc1ccc(N2CCCC(NCCCS(C)(=O)=O)C2)nn1` (centres undefined), the cytotoxicity at 70.5 h was -7.73%.

Regarding `Clc1cnccc1N1CCCOCC1`, the cytotoxicity at 70.5 h is -5.38%.
